# Experimental data as given in US12509448B2, “Salts of indoleamine 2,3-dioxygenase inhibitors” (INVENTISBIO CO., LTD., priority 2019, dated 2025).
# Entries after “also recorded” stand apart in the source; their conditions may differ. Structures can show the parent of a compound that is named as a salt.
# Assays:
# [1] = Solubility test in pH 1.2, 6.8 and 7.4 buffers (HPLC, pH of filtrate, XRPD of remaining solid); assay type: physicochemical; settings: for remaining solid by XRPD: pH 1.2 buffer solution; for change of pH of the buffer solutions: HCl salt: pH 6.8 and 7.4 buffer solutions, K salt: buffers; for solubility compared with Compound 1: buffer solutions
# Procedure: (§1) HPLC ANALYSIS: a representative HPLC method is shown below, which can be used, for example, to analyze the purity, solubility, and stability of the salts herein.
# Solubility test: About 15-20 mg of Compound 1 (Form II), K salt (Form III) and HCl salt (Form I) were weighed into vials, and then added 1.5 mL of pH 1.2, pH 6.8 or pH 7.4 buffer to make saturated solutions.
# All suspensions were kept shaking with 200 rpm at room temperature for up to 24 hours. At 30 min and 24 hours, the sample solution was filtered and analyzed by HPLC to determine the solubility. The pH of filtrates was also measured. At 24 hours, remaining solids were collected and determined by XRPD.
# First, the solubility of Compound 1, HCl salt and K salt was tested in pH 1.2, 6.8 and 7.4 buffer solutions at 25° C. for 30 min and 24 hours. The solubility data and pH value of filtrate were listed in Table 6 and Table 7, respectively.
# Additional solubility of Compound 1 and the HCl salt was tested in pH 6.8 and 7.4 for 30 min and 2 hours.
# [2] = Solid stability test at 40° C./75% RH (HPLC, XRPD); assay type: physicochemical; settings: for physical and chemical stability (XRPD and HPLC): 40° C./75% RH during testing period (9 days; HCl salt 7 days); for Purity (% Area) Initilal: solid stability test, 0 days
# Procedure: as §1
# Stability test: About 15 mg of Compound 1 (Form II), and K salt (Form III) were weighed into vials, and put at the condition of 40° C./75% RH for 9 days. At 0 and 9 days, the solid sample was dissolved using methanol/water (1/1) to make a solution with a concentration of 0.2 mg/mL. Sample solutions were analyzed by HPLC and solid samples were examined by XRPD.
# About 15 mg of Compound 1 HCl salt (Form I) was weighed into vials, and put at the condition of 40° C./75% RH for 7 days. At 0 and 7 days, the solid sample was dissolved using methanol/water (1/1) to make a solution with the concentration of 0.2 mg/mL. The sample solution was analyzed by HPLC and solid sample was analyzed by XRPD.
# K salt and Compound 1 was stored at 40° C./75% RH for 9 days, while HCl salt was stored for 7 days.
# [3] = Dynamic moisture sorption analysis (DVS); assay type: physicochemical; settings: for moisture adsorbed in DVS test: at 80% RH
# Procedure: Dynamic moisture sorption analysis (DVS): DVS was determined using IGAsorp (Hiden Isochema, UK). The sample was tested at a targeted RH of 10 to 90% full cycle in step mode. The analysis was performed in 10% RH increments.
# human hepatocyte = settings: compared to INCB-24360 and others of WO2014150677 and WO2014150646; cited from earlier work
# [4] = Physical stability of Form I under heat and high humidity (XRPD); assay type: physicochemical; settings: for crystalline form by XRPD after storage at high humidity: 25° C./92.5% RH for 10 days; for crystalline form by XRPD after storage under heat: 60° C. for 10 days
# Procedure: Samples of HCl salt Form I was put into the condition of 92.5% RH or 60° C. for 10 days. Then the sample was analyzed by XRPD. […] XRPD patterns were shown in FIG. 1C (92.5% RH for 10 days) and FIG. 1D (60° C. for 10 days).
# [5] = Grinding of Form I (XRPD); assay type: physicochemical; settings: grinded for 2 min and 5 min
# Procedure: Form I of the HCl salt was grinded for 2 min and 5 min.
# [6] = Stability of HCl salt Form I in water and in solvent; assay type: physicochemical
# [7] = additional test (Table 8), pH 6.8 buffer
# [8] = additional test (Table 8), pH 6.8 buffer, 2 hours
# [9] = additional test (Table 8), pH 7.4 buffer
# [10] = additional test (Table 8), pH 7.4 buffer, 2 hours
# [11] = pH 1.2 buffer, 24 hours, 25° C.
# [12] = pH 6.8 buffer, 24 hours, 25° C.
# [13] = pH 7.4 buffer, 24 hours, 25° C.
SMILES,"Solubility (mg/mL) 30 min [1, 7]","Solubility (mg/mL) 2 hours [1, 8]","Solubility (mg/mL) 30 min [1, 9]","Solubility (mg/mL) 2 hours [1, 10]",remaining solid by XRPD ([1]; 24 hours),pH value of filtrate 30 min ([1]; pH 1.2 buffer),"Solubility (mg/mL) 30 min ([1]; pH 1.2 buffer, 25° C.)","pH value of filtrate 24 hours ([1]; pH 1.2 buffer, 24 hours)","Solubility (mg/mL) 24 hours [1, 11]",pH value of filtrate 30 min ([1]; pH 6.8 buffer),"Solubility (mg/mL) 30 min ([1]; pH 6.8 buffer, 25° C.)","pH value of filtrate 24 hours ([1]; pH 6.8 buffer, 24 hours)","Solubility (mg/mL) 24 hours [1, 12]",pH value of filtrate 30 min ([1]; pH 7.4 buffer),"Solubility (mg/mL) 30 min ([1]; pH 7.4 buffer, 25° C.)","pH value of filtrate 24 hours ([1]; pH 7.4 buffer, 24 hours)","Solubility (mg/mL) 24 hours [1, 13]",physical and chemical stability (XRPD and HPLC) [2],Purity (% Area) Initilal [2],XRPD pattern after DVS test [3],also measured
"CCN(c1ncc(C2(C(=O)O)CCC2)cc1Nc1ccc(Cl)cc1)C1CCOCC1 [Compound 1, 1-(5-((4-chlorophenyl)amino)-6-(ethyl(tetrahydro-2H-pyran-4-yl)amino)pyridin-3-yl)cyclobutane-1-carboxylic acid]",0.11 mg/mL,0.12 mg/mL,0.39 mg/mL,0.44 mg/mL,changed into HCl salt,1.11,0.49 mg/mL,1.16,0.51 mg/mL,6.87,0.13 mg/mL,6.81,0.04 mg/mL,7.39,0.44 mg/mL,7.38,0.50 mg/mL,physically and chemically stable,99.53 % Area,not changed,"Purity (% Area) 9 days ([2]; solid, 40° C./75% RH): 99.53 % Area; XRPD pattern after DVS test ([3]; listed as Form II): remained unchanged; moisture adsorbed in DVS test [3]: about 0.37%; human hepatocyte clearance compared to other IDO inhibitors (human hepatocyte): better human hepatocyte clearance"
CCN(c1ncc(C2(C(=O)O)CCC2)cc1Nc1ccc(Cl)cc1)C1CCOCC1 [HCl salt],1.62 mg/mL,0.95 mg/mL,3.41 mg/mL,3.53 mg/mL,–,1.10,0.58 mg/mL,1.17,–,6.59,1.45 mg/mL,3.34,0.02 mg/mL,7.02,3.66 mg/mL,6.06,0.49 mg/mL,physically and chemically stable,99.81 % Area,not changed,"change of pH of the buffer solutions [1]: obviously decreased; solubility compared with Compound 1 [1]: higher solubility than Compound 1; also recorded: more soluble than Compound 1; solubility at 24 h ([1]; pH 1.2 buffer, 25 °C, pH 1.2, simulated gastric fluid, thermodynamic from solid, pH 1.2 buffer, 24 hours, 25° C., read-out: Solubility (mg/mL) 24 hours): 0.65 mg/mL; change of solubility with time ([1]; pH 6.8 and 7.4 buffers at 24 hours): obviously decreased; solid by XRPD ([1]; pH 6.8 and 7.4 buffers, 2 hours): part of HCl salt had been changed to be Compound 1; change of solubility with time ([1]; pH 6.8 buffer at 2 hours): decreased; change of solubility with time ([1]; pH 7.4 buffer, 2 hours versus 30 min): almost constant; Purity (% Area) 7 days ([2]; solid, 40° C./75% RH, 7 days): 99.78 % Area; XRPD pattern after DVS test ([3]; listed as Form I): remained unchanged; crystalline form by XRPD after storage at high humidity [4]: unchanged; crystalline form by XRPD after storage at high humidity ([4]; listed as Form I): remained unchanged; crystalline form by XRPD after storage under heat [4]: unchanged; crystalline form by XRPD after storage under heat ([4]; listed as Form I): remained unchanged; crystalline form by XRPD after grinding [5]: still Form I; degradation in solvent ([6]; in THE at 60° C.): can be degraded; dissociation in water ([6]; in water): can dissociate to Compound 1"
CCN(c1ncc(C2(C(=O)O)CCC2)cc1Nc1ccc(Cl)cc1)C1CCOCC1 [K salt],–,–,–,–,changed into HCl salt,1.18,9.52 mg/mL,1.23,0.71 mg/mL,6.84,2.55 mg/mL,7.46,0.55 mg/mL,7.62,6.38 mg/mL,8.02,2.25 mg/mL,physically and chemically stable,99.80 % Area,–,"change of pH of the buffer solutions [1]: increased; solubility compared with Compound 1 [1]: much higher; also recorded: higher solubility than Compound 1; solubility compared with Compound 1 ([1]; listed as potassium salt): more soluble than Compound 1; Purity (% Area) 9 days ([2]; solid, 40° C./75% RH): 99.79 % Area; XRPD pattern after DVS test ([3]; listed as potassium salt): not changed; moisture adsorbed in DVS test ([3]; listed as potassium salt): 1.32%"
CCN(c1ncc(C2(C(=O)O)CCC2)cc1Nc1ccc(Cl)cc1)C1CCOCC1 [Na salt],–,–,–,–,–,–,–,–,–,–,–,–,–,–,–,–,–,–,–,changed,XRPD pattern after DVS test ([3]; listed as Form IV): changed into a different form; moisture adsorbed in DVS test [3]: 30.84%; moisture adsorbed in DVS test ([3]; listed as sodium salt): about 30%
